Source: patent US12631623B2, “Heart tissue model” (IMBA—INSTITUT FÜR MOLEKULARE BIOTECHNOLOGIE GMBH, priority 2020, dated 2026)
Entries after “also recorded” stand apart in the source; their conditions may differ.

Experiments:
[1] = system: hPSCs (WTC MYH10-GFP); experiment: Mesoderm induction of hPSC aggregates (T / SOX2 staining); type: cell-based, human; details: 8 uM CHIR99021, 40 h of mesoderm induction, 1000 hPSCs
Method: (§1) Immunostaining—Following fixation with 4% PFA (Sigma-Aldrich, #16005) specimens were washed twice in 1×PBS and the 3D constructs additionally once in PBS/Tween20 (0.1%, Sigma-Aldrich, #P1379) for at least 15 min each. Tissues were incubated in blocking solution consisting of PBS (Gibco, #14190094) with 4% goat (Bio-Rad Laboratories, #C07SA) or donkey serum (Bio-Rad Laboratories, #C06SB) and 0.2% Triton X-100 (Sigma-Aldrich, #T8787) for at least 15 minutes. The primary antibody was subsequently applied in above blocking buffer for 1-3 hours at room temperature or overnight at 4° C. in the case of the 2D samples and 2 days at 4° C. on a shaker for 3D samples. Following washing twice with PBS/Tween20, 3D tissues were incubated with the secondary antibody solution at 4° C. on a shaker for 2 more days while 2D samples were incubated up to 2 hours at room temperature. Following these washing steps and an additional PBS wash, tissues were ready for analysis or storage at 4° C. in PBS, while slides were mounted using fluorescence mounting medium (Dako Agilent Pathology Solutions, #S3023). 3D tissues were cleared with FocusClear (CellExplorer Labs, #FC-101) prior to imaging.

[2] = system: cardioids (hPSC-derived); experiment: High-throughput imaging of cardioid diameter and cavity expansion at the cardiac mesoderm stage (day 3.5); type: cell-based, human; details: for cardiac mesoderm density / cell number per cardioid: BMP inhibition with Noggin or LDN193189, initial two days of cardiac mesoderm stage; for cavity expansion / cavity morphogenesis / organoid/cardioid diameter (size): Noggin 100 ng/ml or LDN193189 0.2 μM, initial two days of cardiac mesoderm stage
Method: (§2) Image acquisition and analysis—Fixed whole mounts and sections were imaged with point scanning (upright Zeiss LSM800 Axio Imager with an Apochromat 20× objective lens at 1× magnification) and spinning disk confocal microscopes (Olympus spinning disk system based on a IX3 Series (IX83) inverted microscope, equipped with a Yokogawa W1 spinning disc), or a widefield microscope (Zeiss Axio Imager 2, Axio Vert A1, Panoramic FLASH 250 II System). Live imaging experiments were performed using a Zeiss Celldiscoverer 7 or above-mentioned spinning disk microscope. For high-throughput imaging and analysis, images were taken with a Celigo Imaging Cytometer microscope (Nexcelom Biosciences, LLC) and analyzed with custom-made scripts written for the FIJI software. Sections for transmission electron microscopy were examined with aFEI Morgagni 268D TEM (FEI, Eindhoven, The Netherlands) operated at 80 kV. Images were acquired using an 11 megapixel Morada CCD camera (Olympus-SIS).
We next used cardioids to dissect how signaling controls intrinsic morphogenesis and patterning during cardioid specification. To quantify phenotypes with high statistical power, we combined the high-throughput cardioid platform with a custom-made semi-automated imaging/analysis FIJI-pipeline. Using this setup, we examined which signals control cardioid self-organization and at what stage of mesodermal specification they act. We first systematically tested the effects of key mesoderm and cardiac mesoderm signaling dosages (e. g. WNT, BMP) on cardiac cavity self-morphogenesis. […] An intermediate WNT dosage promoted both cavity morphogenesis and CM specification. The optimal WNT activation range was consistent for each hPSC line but differed across lines, consistent with numerous studies showing line-specific signaling responses. Importantly, the highest WNT dosage promoted cavity formation without CM specification (FIG. 16A), highlighting a striking difference in signaling control of cell-fate specification versus morphogenesis.

[3] = system: cardioids (hPSC-derived); experiment: RNA-seq gene expression of cardioids induced with high vs low CHIR99021; type: cell-based, human
Method: RNA isolation and RNA-seq/Smart-Seq2/single-cell (sc)RNA-seq preparation—RNA was isolated with the RNeasy Mini Kit (Qiagen, #74104). Generation of the bulk RNA-seq libraries was performed according to the manufacturer's instructions with QuantSeq 3′ mRNA-Seq Library Prep Kit FWD (Lexogen GmbH, #015). After the preparation of the libraries, samples were checked for an adequate size distribution with a fragment analyzer (Advanced Analytical Technologies, Inc) and were submitted to the Vienna Biocenter Core Facilities (VBCF) Next-Generation-Sequencing (NGS) facility for sequencing. For Smart-Seq2 analysis, 400 cells were sorted into lysis buffer and stored at −80° C. until further processing. […]
Bioinformatic analysis—Trimming was performed for Smart-Seq2 experiments using trim-galore v0.5.0 and for QuantSeq 3′ mRNA-Seq experiments using BBDuk v38.06 (ref=polyA.fa.gz,truseq.fa.gz k=13 ktrim=r useshortkmers=t mink=5 qtrim=r trimq=10 minlength=20). Reads mapping to abundant sequences included in the iGenomes UCSC hg38 reference (human rDNA, human mitochondrial chromosome, phiX174 genome, adapter) were removed using bowtie2 v2.3.4.1 alignment. Remaining reads were analyzed using genome and UCSC gene annotation provided in the iGenomes UCSC hg38 bundle (support.illumina.com/sequencing/sequencingsoftware/igenome.html). […]

[4] = system: cardiac organoids (hPSC-derived); experiment: Reporter imaging / immunostaining of cardiomyocyte and endothelial cell organisation in cardiac organoids; type: cell-based, human; details: for location of endothelial cell layer: with VEGF; for organization of cardiomyocytes and endothelial cells: Wnt-inhibitor during differentiation, CHIR99021 5 μM or 6 μM; for EC lining of cavity: VEGF(-A) added after CM specification stage; for separation of CM and EC layers: VEGF(-A) included at cardiac mesoderm stage
Method: as §1, §2

[5] = system: cardiac organoids (hPSC-derived, WTC MYL7-GFP/CDH5-Tomato)
Method: Generation of cardiac organoids with endothelial lining—Pluripotency maintenance medium was refreshed 6 h prior to seeding cells. Then, 2500-3000 hPSC were seeded into ultra-low cluster 96-well plates (Corning) in FLyAB(Ins) medium with CHIR (5-6 μM) and ROCKi (5 μM) for 36 h-40 h.
In order to stop endothelial cell differentiation, 100 nM sunitinib malate (Biovision, #1611) was added from the cardiac mesoderm stage (BFIIWPRa) onward.
Flow cytometry—Cells were dissociated using the CM dissociation kit (Stem Cell Technologies, #05025). After centrifugation for 3 min at 130 g, cells were resuspended in 300 μl PBS supplemented with 0.5 mM EDTA (Biological Industries, #01-862-1B) and 10% FBS (PAA Laboratories, #A15-108). Cells were acquired with a FACS LSR Fortessa II (BD) and analysed with FlowJo V10 (FlowJo, LLC) software. FACS sorting was performed using a Sony SH800 Cell Sorter (Sony Biotechnology).

[6] = system: cardiac mesoderm cavity structures (cardioids); experiment: Dextran incorporation assay in cardioids; type: cell-based, human; details: low-molecular-weight (4 kDa) dextran, cardiac mesoderm stage
Method: Dextran and Fluo-4 incorporation assays—A 4.4 kDa Dextran conjugated with TAMRA (Sigma Aldrich, T1037) was added to the cardioid culture between 64 h and 90 h. Cardioids were live imaged as cavities started to form. To image and analyze calcium-transients, 3D cardioids and 2D CM were loaded with Fluo-4 AM (Thermo Fisher Scientific, #F14217). After a 15-min incubation, cardioids were incubated for another 15 min in Tyrode's salt solution (Sigma Aldrich, #T2397). Subsequently, cardioids were imaged live and videos were analyzed with FIJI software (Schindelin et al., 2012, Nature Methods 9, 676-682) to acquire the signal intensity (F) of regions of interest and background (F0).

[7] = +Sunitinib (100 μM [sic]), end of differentiation day 7.5

Molecule: Cc1c[nH]c(-c2cnc(NCCNc3ccc(C#N)cn3)nc2-c2ccc(Cl)cc2Cl)n1 [CHIR99021]
- exit from pluripotency (T up, SOX2 down) [1]: efficiently exited pluripotency
- cavity defect of HAND1 KO organoids ([2]; increased CHIR99021 during mesoderm induction, HAND1 KO (H9), d3.5): rescues cavity defect in HAND1 KO organoids
- cardioid diameter / lumen expansion as function of CHIR99021 dosage ([2]; range of CHIR99021 concentrations during mesoderm induction, day 3.5): dramatic effects on cardioid diameter; also recorded: striking effects on lumen expansion
- EC genes (PECAM1, CDH5, VEGFA, TAL1, LMO2, ETV2) expression ([3]; 4 μM CHIR99021 during mesoderm induction vs 8 μM): upregulated; also recorded: higher expression of EC-specifying genes
- BMP target genes (HAND1, IRX3, BMP4, BMP2, BMPR2) expression ([3]; 8 μM during mesoderm induction (cavity-forming conditions)): upregulated
- endothelial lining of cavities ([4]; 4 uM CHIR99021 during induction, d27, WTC MYL7-GFP): lining of internal cavities by endothelial (CD31+) cells
- apoptosis (cleaved caspase 3 staining) ([4]; 4 μM CHIR condition): increased levels inside the EC ring
- apoptosis (cleaved caspase 3 staining) ([4]; 6 μM CHIR condition): low levels of apoptosis
- location of endothelial cell layer ([4]; high WNT activity, 5-8 μM CHIR during mesoderm induction): compartment/lining around the cardiomyocytes
- location of endothelial cell layer ([4]; lower WNT activity, 4 μM (1-4 μM) CHIR during mesoderm induction): inner ring of EC expressing CD31
- location of endothelial cell layer ([4]; lower WNT activity, 4 μM (1-4 μM) CHIR during mesoderm induction, listed as CHIR): inside lining facing the cavity

Molecule: Cc1ccc2nc(NC(=O)CSc3nc4c(c(=O)n3-c3ccccc3)SCC4)sc2c1 [IWP2]
- organization of cardiomyocytes and endothelial cells [4]: two-layered organization

Molecule: O=C(Nc1cccc2cccnc12)c1ccc(N2C(=O)[C@@H]3[C@H](C2=O)[C@@H]2C=C[C@H]3C2)cc1 [IWR-1]
- organization of cardiomyocytes and endothelial cells [4]: two-layered organization

Molecule: c1ccc2c(-c3cnn4cc(-c5ccc(N6CCNCC6)cc5)cnc34)ccnc2c1 [LDN193189]
- cardiac mesoderm density [2]: denser cardiac mesoderm
- cell number per cardioid [2]: remained stable
- cavity expansion / cavity morphogenesis [2]: interfere with cavity expansion; also recorded: impaired cavity morphogenesis
- organoid/cardioid diameter (size) ([2]; day 3.5): significantly decreased diameter; also recorded: reduces cardioid diameter; also recorded: decreased cardioid size

Molecule: CCN(CC)CCNC(=O)c1c(C)[nH]c(/C=C2\C(=O)Nc3ccc(F)cc32)c1C [Sunitinib]
- MYL7-GFP expressing cardiomyocytes [5, 7]: 96%
- cells expressing the endothelial marker CDH5-Tomato [5, 7]: 3%
- cardiomyocytes in organoids ([5]; Sunitinib 100 nM in the first 10 days of differentiation or longer): over 95%

Molecule: Oc1nc(-c2ccc(C(F)(F)F)cc2)nc2c1CSCC2 [XAV939]
- organization of cardiomyocytes and endothelial cells [4]: two-layered organization

Molecule: VEGF
- cardiomyocytes (MYL7+) in organoids ([5]; VEGF 200 ng/ml at cardiac mesoderm stage, intermediate WNT activation): ~41%
- endothelial cells (CDH5+) in organoids ([5]; VEGF 200 ng/ml at cardiac mesoderm stage, intermediate WNT activation, listed as VEGF-A): 53%
- cell composition of cardioid-like structures ([4]; VEGF during cardiac mesoderm stage, no WNT inhibition): containing only ECs and fibroblast-like cells without CMs; also recorded: contained primarily ECs and COL1A1^+ cells, without CMs
- EC lining of cavity [4]: occasionally led to partial EC lining of cavities but often also to ECs forming a partial outside layer
- EC lining of cavity ([4]; listed as VEGF-A): occasionally observed formation of an EC layer lining the cardioid cavity
- separation of CM and EC layers [4]: separate into a CM and an EC layer with a space between them
- separation of CM and EC layers ([4]; listed as VEGF-A): separated into CM and EC layers

Molecule: dextran
- permeability of cavity structures [6]: impermeable
- permeability of cavity structures ([6]; listed as dextrans): not permeable

B1: Noggin (protein, UniProt Q13253 28-232, looked up)
Noggin: QHYLHIRPAPSDNLPLVDLIEHPDPIFDPKEKDLNETLLRSLLGGHYDPGFMATSPPEDRPGGGGGAAGGAEDLAELDQLLRQRPSGAMPSEIKGLEFSEGLAQGKKQRLSKKLRRKLQMWLWSQTFCPVLYAWNDLGSRFWPRYVKVGSCFSKRSCSVPEGMVCKPSKSVHLTVLRWRCQRRGGQRCGWIPIQYPIISECKCSC
- cardiac mesoderm density [2]: denser cardiac mesoderm
- cell number per cardioid [2]: remained stable
- cavity expansion / cavity morphogenesis [2]: interfere with cavity expansion; also recorded: heavily impaired cavity expansion; also recorded: impaired cavity morphogenesis
- organoid/cardioid diameter (size) ([2]; day 3.5): significantly decreased diameter; also recorded: reduces cardioid diameter; also recorded: decreased cardioid size

B2: BMP4: bone morphogenetic protein 4 (protein, UniProt P12644 293-408, looked up)
Bone morphogenetic protein 4: SPKHHSQRARKKNKNCRRHSLYVDFSDVGWNDWIVAPPGYQAFYCHGDCPFPLADHLNSTNHAIVQTLVNSVNSSIPKACCVPTELSAISMLYLDEYDKVVLKNYQEMVVEGCGCR
- cavity expansion ([2]; BMP signalling dosage at cardiac mesoderm stage, higher levels of BMP4): drove cavity expansion
